The values below come from publication PMC12384454, “Study of the Lipophilicity of Tetracyclic Anticancer Azaphenothiazines” (Biomolecules, 2025).

One series deals with A549 cells.
Experiment: not given
The following applies: MTT assay; cited from earlier work.
As for `CC(=O)NCCCCN1c2cc(Cl)ccc2Sc2cc3ccccc3nc21` [compound 13], the IC50 is 82.3 ± 6.2 µM.

In the case of `Cc1ccc(S(=O)(=O)NCCCCN2c3cc(Cl)ccc3Sc3cc4ccccc4nc32)cc1` [compound 17], the concentration for half-maximal inhibition (IC50) was 9.45 µM.

The same series, now with this note: selectivity index vs HaCaT; cited from earlier work.
On to `CS(=O)(=O)NCCCN1c2cc(Cl)ccc2Sc2cc3ccccc3nc21` [compound 10], for which the “SI A549” value is listed as 1.0.

Take `Cc1ccc(S(=O)(=O)NCCCN2c3cc(Cl)ccc3Sc3cc4ccccc4nc32)cc1` [compound 11]: the “SI A549” value is on record as 1.0.

For the molecule `CC(=O)NCCCCN1c2cc(Cl)ccc2Sc2cc3ccccc3nc21` [compound 13], the “SI A549” value is 1.2.

For the molecule `CCOC(=O)NCCCCN1c2cc(Cl)ccc2Sc2cc3ccccc3nc21` [compound 14], the “SI A549” value is recorded as 1.0.

As to `Cc1ccc(S(=O)(=O)NCCCCN2c3cc(Cl)ccc3Sc3cc4ccccc4nc32)cc1` [compound 17], the “SI A549” value is 10.5.

Test system in a further series: not listed separately
The series is described as follows: RP-TLC lipophilicity (RM0, log PTLC, C0), silica gel RP-18F254, acetone/TRIS buffer pH 7.4. The class given is physicochemical. The following applies: RP-TLC, RM extrapolated to 0% acetone, TRIS buffer pH 7.4. The protocol:
In connection with this, in the next stage of the study, the parameters of lipophilicity of the tested compounds were determined experimentally. […] This technique was used to determine the retardation coefficient Rf for each compound in eight mobile phases consisting of acetone and Tris buffer in different volume ratios (50–85% acetone). Next, the Rf values were converted to the chromatographic parameter RM, and then the obtained values were extrapolated to 0% acetone content in the mobile phase obtaining the lipophilicity parameter RM0 (Table S2).
The parameter RM0 can be correlated to an experimental log P lipophilicity parameter of chemical molecules (log PTLC) by applying a calibration curve. The calibration curve was obtained by determining the Rf value for standard substances with a known log Plit value using the RP-TLC method under conditions analogous to those of the tested substances. After calculating the RM and RM0 values, the dependence of the log Plit parameter on the experimentally obtained RM0 values for standards was determined (Table 2).
The chromatographic parameter of lipophilicity was determined by means of Soczewiński–Wachtmeister’s method. […] The acetone ratio was 50 to 85% (v/v) in increments of 5%. The tested compounds in the form of an ethanol solution at a concentration of 2.0 mg/mL each were spotted on chromatographic plates at an amount of 2 µL each. Before analysis, the chromatography chamber (Camag, Switzerland) was saturated with the mobile phase (50 mL) for 30 min. After development at 20 ± 2 °C and subsequent drying, the chromatograms were observed under UV light at 254 nm by using a Camag UV lamp (Muttenz, Switzerland). Each analysis was performed in triplicate. The average value of the retardation factor (Rf) was used to calculate RM using Equation (1):(1) RM=log(1−Rf/Rf)
In addition, the chromatographic parameter of lipophilicity RM0 and b value allowed the determination of the chromatography hydrophobic index C0 by using the following formula:(3) C0=− RM0/b
`O=C(O)c1ccccc1` [benzoic acid, reference compound]: the RM0 is 1.16.

In the case of `O=C1c2ccccc2C(=O)N1CCCN1c2cc(Cl)ccc2Sc2cc3ccccc3nc21` [compound 6], the RM0 was 4.12.

Turning to `CS(=O)(=O)NCCCN1c2cc(Cl)ccc2Sc2cc3ccccc3nc21` [compound 10], the RM0 was 3.37.

As to `Cc1ccc(S(=O)(=O)NCCCN2c3cc(Cl)ccc3Sc3cc4ccccc4nc32)cc1` [compound 11], the RM0 was 4.59.

In the case of `O=C1c2ccccc2C(=O)N1CCCCN1c2cc(Cl)ccc2Sc2cc3ccccc3nc21` [compound 12], the RM0 is given as 4.41.

In the case of `CC(=O)NCCCCN1c2cc(Cl)ccc2Sc2cc3ccccc3nc21` [compound 13], the RM0 is recorded as 3.11.

Turning to `CCOC(=O)NCCCCN1c2cc(Cl)ccc2Sc2cc3ccccc3nc21` [compound 14], the RM0 is recorded as 4.06.

In the case of `Cc1ccc(S(=O)(=O)NCCCCN2c3cc(Cl)ccc3Sc3cc4ccccc4nc32)cc1` [compound 17], the RM0 is 4.68.

As to `CN(C)CCCN1c2ccccc2Sc2ccc(Cl)cc21` [compound 18, chlorpromazine, reference compound], the RM0 is on record as 3.41.

Staying with this series, now noted: chromatography hydrophobic index, C0 = −RM0/b.
Consider `O=C1c2ccccc2C(=O)N1CCCN1c2cc(Cl)ccc2Sc2cc3ccccc3nc21` [compound 6], for which the C0 came to 82.90.

In the case of `CS(=O)(=O)NCCCN1c2cc(Cl)ccc2Sc2cc3ccccc3nc21` [compound 10], the C0 is 76.24.

As for `Cc1ccc(S(=O)(=O)NCCCN2c3cc(Cl)ccc3Sc3cc4ccccc4nc32)cc1` [compound 11], the C0 is 79.96.

As to `O=C1c2ccccc2C(=O)N1CCCCN1c2cc(Cl)ccc2Sc2cc3ccccc3nc21` [compound 12], the C0 worked out at 85.47.

`CC(=O)NCCCCN1c2cc(Cl)ccc2Sc2cc3ccccc3nc21` [compound 13] gave a C0 of 77.17.

For the molecule `CCOC(=O)NCCCCN1c2cc(Cl)ccc2Sc2cc3ccccc3nc21` [compound 14], the C0 was found to be 82.86.

Regarding `Cc1ccc(S(=O)(=O)NCCCCN2c3cc(Cl)ccc3Sc3cc4ccccc4nc32)cc1` [compound 17], the C0 was found to be 80.41.

`CN(C)CCCN1c2ccccc2Sc2ccc(Cl)cc21` [compound 18, chlorpromazine, reference compound] yielded a C0 of 67.79.

Still in this series, the particulars now being: from RM0 by calibration curve log PTLC = 1.2862RM0 + 0.2061.
On to `O=C1c2ccccc2C(=O)N1CCCN1c2cc(Cl)ccc2Sc2cc3ccccc3nc21` [compound 6], for which the chromatographic logP came out at 5.5.

In the case of `CS(=O)(=O)NCCCN1c2cc(Cl)ccc2Sc2cc3ccccc3nc21` [compound 10], the chromatographic logP was 4.53.

As to `Cc1ccc(S(=O)(=O)NCCCN2c3cc(Cl)ccc3Sc3cc4ccccc4nc32)cc1` [compound 11], the chromatographic logP stood at 6.1.

For the molecule `O=C1c2ccccc2C(=O)N1CCCCN1c2cc(Cl)ccc2Sc2cc3ccccc3nc21` [compound 12], the chromatographic logP was 5.88.

Turning to `CC(=O)NCCCCN1c2cc(Cl)ccc2Sc2cc3ccccc3nc21` [compound 13], the chromatographic logP is 4.21.

Regarding `CCOC(=O)NCCCCN1c2cc(Cl)ccc2Sc2cc3ccccc3nc21` [compound 14], the chromatographic logP is 5.43.

On to `Cc1ccc(S(=O)(=O)NCCCCN2c3cc(Cl)ccc3Sc3cc4ccccc4nc32)cc1` [compound 17], for which the chromatographic logP is 6.22.

In the case of `CN(C)CCCN1c2ccccc2Sc2ccc(Cl)cc21` [compound 18, chlorpromazine, reference compound], the chromatographic logP is 4.59.

The test system of another series is PC3.
Experiment: not given
The note with it: MTT assay; cited from earlier work. Further details: method as in earlier work.
Take `Cc1ccc(S(=O)(=O)NCCCCN2c3cc(Cl)ccc3Sc3cc4ccccc4nc32)cc1` [compound 17]: the half-inhibitory concentration (IC50) is 48.6 ± 4.7 µM.

Staying with this series, now noted: selectivity index vs HaCaT; cited from earlier work.
Regarding `Cc1ccc(S(=O)(=O)NCCCCN2c3cc(Cl)ccc3Sc3cc4ccccc4nc32)cc1` [compound 17], the “SI PC3” value is given as 2.0.

The subject of a further series is HaCaT cells.
Experiment: not given
The note with it: MTT assay, normal cells; cited from earlier work.
As to `CS(=O)(=O)NCCCN1c2cc(Cl)ccc2Sc2cc3ccccc3nc21` [compound 10], the half-maximal inhibitory concentration (IC50) is below 100 µM.

As for `Cc1ccc(S(=O)(=O)NCCCN2c3cc(Cl)ccc3Sc3cc4ccccc4nc32)cc1` [compound 11], the IC50 was below 100 µM.

For the molecule `CC(=O)NCCCCN1c2cc(Cl)ccc2Sc2cc3ccccc3nc21` [compound 13], the half-maximal inhibitory concentration (IC50) was below 100 µM.

As to `CCOC(=O)NCCCCN1c2cc(Cl)ccc2Sc2cc3ccccc3nc21` [compound 14], the IC50 was below 100 µM.

Regarding `Cc1ccc(S(=O)(=O)NCCCCN2c3cc(Cl)ccc3Sc3cc4ccccc4nc32)cc1` [compound 17], the concentration for half-maximal inhibition (IC50) is below 100 µM.

The next series deals with MDA.
Experiment: not given
Details: method as in earlier work. The note with it: MTT assay; cited from earlier work.
Take `CS(=O)(=O)NCCCN1c2cc(Cl)ccc2Sc2cc3ccccc3nc21` [compound 10]: the IC50 is below 100 µM.

In the case of `Cc1ccc(S(=O)(=O)NCCCN2c3cc(Cl)ccc3Sc3cc4ccccc4nc32)cc1` [compound 11], the concentration for half-maximal inhibition (IC50) is below 100 µM.

On to `CC(=O)NCCCCN1c2cc(Cl)ccc2Sc2cc3ccccc3nc21` [compound 13], for which the IC50 is below 100 µM.

With `CCOC(=O)NCCCCN1c2cc(Cl)ccc2Sc2cc3ccccc3nc21` [compound 14], the concentration for half-maximal inhibition (IC50) is below 100 µM.

As for `Cc1ccc(S(=O)(=O)NCCCCN2c3cc(Cl)ccc3Sc3cc4ccccc4nc32)cc1` [compound 17], the half-maximal inhibitory concentration (IC50) is below 100 µM.

Staying with this series, now noted: selectivity index vs HaCaT; cited from earlier work.
In the case of `CS(=O)(=O)NCCCN1c2cc(Cl)ccc2Sc2cc3ccccc3nc21` [compound 10], the “SI MDA” value is listed as 1.0.

Take `Cc1ccc(S(=O)(=O)NCCCN2c3cc(Cl)ccc3Sc3cc4ccccc4nc32)cc1` [compound 11]: the “SI MDA” value was 1.0.

For `CC(=O)NCCCCN1c2cc(Cl)ccc2Sc2cc3ccccc3nc21` [compound 13], the “SI MDA” value is 1.0.

`CCOC(=O)NCCCCN1c2cc(Cl)ccc2Sc2cc3ccccc3nc21` [compound 14]: the “SI MDA” value was 1.0.

`Cc1ccc(S(=O)(=O)NCCCCN2c3cc(Cl)ccc3Sc3cc4ccccc4nc32)cc1` [compound 17]: the “SI MDA” value is 1.0.

For the next series, the system named is MiaPaCa-2.
Experiment: not given
Details: method as in earlier work. The following applies: selectivity index vs HaCaT; cited from earlier work.
`Cc1ccc(S(=O)(=O)NCCCCN2c3cc(Cl)ccc3Sc3cc4ccccc4nc32)cc1` [compound 17]: the “SI MiaPaCa-2” value is 1.0.
